Laboratory results taken from patent US10703764B2, “Benzopiperazine compositions as BET bromodomain inhibitors” (FORMA Therapeutics, Inc., priority 2013, dated 2020).
pIC50: −log10 of the molar value. Read-outs that look alike come from different tables or passages of the source.

Tests used:
[1] = biological target: T1, BRD4 BD2 (Homo sapiens, UniProt O60885); test: AlphaScreen binding assay, BRD4 Bromodomain 2
T1 construct: made in house
In short: (§1)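 An AlphaScreen competition format was used with His-BRD4 BD1 or BD2 and biotin-H4 K5/8/12/16-acetyl peptide, each at matched final levels of 50 nM (BD1) or 100 nM (BD2). Incubation in HEPES/NaCl buffer with 0.1% BSA and 0.01% Triton X-100 ran ≥1 h before IC50 determination.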

[2] = biological target: T2, BRD4 BD1 (Homo sapiens, UniProt O60885); test: AlphaScreen binding assay, BRD4 Bromodomain 1
T2 construct: made in house
In short: as §1

[3] = system: MV4-11 cells; test: Oncology cell growth assay (3-day proliferation, CellTiter-Glo); format: cell-based; settings: Homo sapiens, AML cell line MV4-11, 72 hours, compounds grouped by IC50 range, read-out: MV4-11 IC50 (inhibition of proliferation, gIC50)
Procedure: The impact of Example compounds on cancer cell proliferation was determined using the acute myelocytic leukemia (AML) cell line MV4-11 (ATCC) in a 3-day proliferation assay. MV4-11 cells were maintained in RPMI 1640 media supplemented with 10% FBS at 37° C. and an atmosphere of 5% CO2. For compound testing, compound dilutions series were prepared in DMSO via a 3-fold serial dilution from 2 mM to 0.001 mM in 384-well white flat bottom plates. The final compound concentrations in the wells were 10, 3.3, 1.1, 0.37, 0.12, 0.041, 0.013 and 0.0045 μM. MV4-11 cells were plated at a density of 3000 cells/well in final volume of 50 μl culture media and incubated for 72 hours. […] Luminescent signal from the CellTiter-Glo assay was read on an EnVision multilabel plate reader (PerkinElmer). Values for the concentration that inhibited cell growth by 50% (gIC50) between the DMSO control and background control (no cells) were determined using IDBS Activity Base software with a four parameter logistic curve fit by the equation y=A+((B−A)/(1+((C/x)^D))), wherein A denotes the bottom plateau of the curve, B denotes the top plateau of the curve, C denotes the x value at the middle of the curve, D denotes the slope factor, x denotes the original known x values, and y denotes the original known y values. Data was fitted using the Levenburg Marquardt algorithm.

Row | SMILES | pIC50 [1] | pIC50 [2] | pIC50 ([3]; MV4-11, 72 h) | pIC50 [3]
1 | CC(=O)N1c2ccc(-c3cnn(CC(C)(C)O)c3)cc2N(C(=O)OC2CC(F)(F)C2)C[C@@H]1C [Example I-28, (S)-3,3-difluorocyclobutyl 4-acetyl-7-(1-(2-hydroxy-2-methylpropyl)-1H-pyrazol-4-yl)-3-methyl-3,4-dihydroquinoxaline-1(2H)-carboxylate] | 6.30 to 7.30 | 6.00 to 7.00 | < 6.30 | –
2 | CC(=O)N1c2ccc(-c3ccc(N4CCCS4(=O)=O)cc3)cc2N(C(=O)OC2CC(F)(F)C2)C[C@@H]1C [Example I-29, 3,3-difluorocyclobutyl (3S)-4-acetyl-7-[4-(1,1-dioxo-1λ^6,2-thiazolidin-2-yl)phenyl]-3-methyl-1,2,3,4-tetrahydroquinoxaline-1-carboxylate] | < 6.30 | 6.00 to 7.00 | < 6.30 | –
3 | CC(=O)N1c2ccc(-c3ccc(NS(C)(=O)=O)cc3)cc2N(C(=O)OC2CC(F)(F)C2)C[C@@H]1C [Example I-30, (S)-3,3-difluorocyclobutyl 4-acetyl-3-methyl-7-(4-(methylsulfonamido)phenyl)-3,4-dihydroquinoxaline-1(2H)-carboxylate] | < 6.30 | 6.00 to 7.00 | < 6.30 | –
4 | CC(=O)N1c2ccc(-c3ccc(NS(C)(=O)=O)cc3)cc2N(C(=O)OC2CCC(F)(F)CC2)C[C@@H]1C [Example I-31, (S)-4,4-difluorocyclohexyl 4-acetyl-3-methyl-7-(4-(methylsulfonamido)phenyl)-3,4-dihydroquinoxaline-1(2H)-carboxylate] | 6.30 to 7.30 | 6.00 to 7.00 | 6.30 to 7.00 | –
5 | CC(=O)N1c2ccc(-c3cnn(C4CC4)c3)cc2N(C(=O)OC2CCC(F)(F)CC2)C[C@@H]1C [Example I-33, (S)-4,4-difluorocyclohexyl 4-acetyl-7-(1-cyclopropyl-1H-pyrazol-4-yl)-3-methyl-3,4-dihydroquinoxaline-1(2H)-carboxylate] | 6.30 to 7.30 | 6.00 to 7.00 | 6.30 to 7.00 | –
6 | CC(=O)N1c2ccc(-c3cnn(CCO)c3)cc2N(C(=O)OC2CCC(F)(F)CC2)C[C@@H]1C [Example I-34, (S)-4,4-difluorocyclohexyl 4-acetyl-7-(1-(2-hydroxyethyl)-1H-pyrazol-4-yl)-3-methyl-3,4-dihydroquinoxaline-1(2H)-carboxylate] | 6.30 to 7.30 | 6.00 to 7.00 | 6.30 to 7.00 | –
7 | CC(=O)N1c2ccc(-c3cnn(CC(C)(C)O)c3)cc2N(C(=O)OC2CCC(F)(F)CC2)C[C@@H]1C [Example I-35, (S)-4,4-difluorocyclohexyl 4-acetyl-7-(1-(2-hydroxy-2-methylpropyl)-1H-pyrazol-4-yl)-3-methyl-3,4-dihydroquinoxaline-1(2H)-carboxylate] | 6.30 to 7.30 | 6.00 to 7.00 | 6.30 to 7.00 | –
8 | CC(=O)N1c2ccc(-c3ccc(N4CCCS4(=O)=O)cc3)cc2N(C(=O)OC2CCC(F)(F)CC2)C[C@@H]1C [Example I-36, 4,4-difluorocyclohexyl (3S)-4-acetyl-7-[4-(1,1-dioxo-1λ^6,2-thiazolidin-2-yl)phenyl]-3-methyl-1,2,3,4-tetrahydroquinoxaline-1-carboxylate] | 6.30 to 7.30 | 5.00 to 6.00 | 6.30 to 7.00 | –
9 | CC(=O)N1c2ccc(-c3cnn(C4CS(=O)(=O)C4)c3)cc2N(C(=O)OC2CCOCC2)C[C@@H]1C [Example I-37, oxan-4-yl (3S)-4-acetyl-7-[1-(1,1-dioxo-1λ^6-thietan-3-yl)-1H-pyrazol-4-yl]-3-methyl-1,2,3,4-tetrahydroquinoxaline-1-carboxylate] | 6.30 to 7.30 | 6.00 to 7.00 | 6.30 to 7.00 | –
10 | CC(=O)N1c2ccc(-c3cnn(C4CCOCC4)c3)cc2N(C(=O)OC2CCOCC2)C[C@@H]1C [Example I-38, (S)-tetrahydro-2H-pyran-4-yl 4-acetyl-3-methyl-7-(1-(tetrahydro-2H-pyran-4-yl)-1H-pyrazol-4-yl)-3,4-dihydroquinoxaline-1(2H)-carboxylate] | 6.30 to 7.30 | 6.00 to 7.00 | 6.30 to 7.00 | –
11 | CC(=O)N1c2ccc(-c3cnn(C4CCOCC4)c3)cc2N(C(=O)OC2CCC2)C[C@@H]1C [Example I-39, (S)-cyclobutyl 4-acetyl-3-methyl-7-(1-(tetrahydro-2H-pyran-4-yl)-1H-pyrazol-4-yl)-3,4-dihydroquinoxaline-1(2H)-carboxylate] | > 7.30 | 6.00 to 7.00 | > 7.00 | –
12 | COC(=O)N1c2ccc(-c3cnn(C4CC4)c3)cc2N(C(=O)OC2CCCC2)C[C@@H]1C [Example I-40, (S)-4-cyclopentyl 1-methyl 6-(1-cyclopropyl-1H-pyrazol-4-yl)-2-methyl-2,3-dihydroquinoxaline-1,4-dicarboxylate] | 6.30 to 7.30 | 6.00 to 7.00 | – | 6.30 to 7.00
13 | C[C@H]1CN(C(=O)OC2CCCC2)c2cc(-c3cnn(C4CC4)c3)ccc2N1C(=O)C1CC1 [Example I-41, (S)-cyclopentyl 4-(cyclopropanecarbonyl)-7-(1-cyclopropyl-1H-pyrazol-4-yl)-3-methyl-3,4-dihydroquinoxaline-1 (2H)-carboxylate] | 6.30 to 7.30 | 6.00 to 7.00 | 6.30 to 7.00 | –
14 | COC(=O)N1c2ccc(-c3cnn(C4CC4)c3)cc2N(C(=O)C2CC2)C[C@@H]1C [Example I-42, (S)-methyl 4-(cyclopropanecarbonyl)-6-(1-cyclopropyl-1H-pyrazol-4-yl)-2-methyl-3,4-dihydroquinoxaline-1 (2H)-carboxylate] | 6.30 to 7.30 | 6.00 to 7.00 | – | 6.30 to 7.00
15 | COC(=O)N1c2ccc(-c3cnn(C4CC4)c3)cc2N(C(=O)OC(C)C)C[C@@H]1C [Example I-43, (S)-4-isopropyl 1-methyl 6-(1-cyclopropyl-1H-pyrazol-4-yl)-2-methyl-2,3-dihydroquinoxaline-1,4-dicarboxylate] | 6.30 to 7.30 | 6.00 to 7.00 | < 6.30 | –

Further lines, with some results ahead:

Row | pIC50 [1] | pIC50 [2] | pIC50 ([3]; MV4-11, 72 h) | SMILES | pIC50 [3]
16 | 6.30 to 7.30 | 6.00 to 7.00 | 6.30 to 7.00 | CC(=O)N1c2ccc(-c3cnn(C4CC4)c3)cc2N(c2nc3ccccc3o2)C[C@@H]1C [Example I-44, (S)-1-(4-(benzo[d]oxazol-2-yl)-6-(1-cyclopropyl-1H-pyrazol-4-yl)-2-methyl-3,4-dihydroquinoxalin-1(2H)-yl)ethanone] | –
17 | < 6.30 | 6.00 to 7.00 | 6.30 to 7.00 | CC(=O)N1c2ccc(-c3ccc(S(C)(=O)=O)cc3)cc2N(c2nc3ccccc3o2)C[C@@H]1C [Example I-46, (S)-1-(4-(benzo[d]oxazol-2-yl)-2-methyl-6-(4-(methylsulfonyl)phenyl)-3,4-dihydroquinoxalin-1(2H)-yl)ethanone] | –
18 | 6.30 to 7.30 | 6.00 to 7.00 | 6.30 to 7.00 | CC(=O)N1c2ccc(-c3cnn(C4CC4)c3)cc2N(c2ncc3ccccc3n2)C[C@@H]1C [Example I-51, (S)-1-(6-(1-cyclopropyl-1H-pyrazol-4-yl)-2-methyl-4-(quinazolin-2-yl)-3,4-dihydroquinoxalin-1(2H)-yl)ethanone] | –
19 | > 7.30 | 6.00 to 7.00 | > 7.00 | CC(=O)N1c2ccc(-c3cnn(C4CC4)c3)cc2N(c2nn(C)c3ccccc23)C[C@@H]1C [Example I-52, (S)-1-(6-(1-cyclopropyl-1H-pyrazol-4-yl)-2-methyl-4-(1-methyl-1H-indazol-3-yl)-3,4-dihydroquinoxalin-1(2H)-yl)ethanone] | –
20 | > 7.30 | 6.00 to 7.00 | 6.30 to 7.00 | CC(=O)N1c2ccc(-c3cnn(C4COC4)c3)cc2N(c2nn(C)c3ccccc23)C[C@@H]1C [Example I-53, (S)-1-(2-methyl-4-(1-methyl-1H-indazol-3-yl)-6-(1-(oxetan-3-yl)-1H-pyrazol-4-yl)-3,4-dihydroquinoxalin-1(2H)-yl)ethanone] | –
21 | 6.30 to 7.30 | 6.00 to 7.00 | > 7.00 | CC(=O)N1c2ccc(-c3cnn(C4CC4)c3)cc2N(c2nn(C)c3cc(F)ccc23)C[C@@H]1C [Example I-54, (S)-1-(6-(1-cyclopropyl-1H-pyrazol-4-yl)-4-(6-fluoro-1-methyl-1H-indazol-3-yl)-2-methyl-3,4-dihydroquinoxalin-1(2H)-yl)ethanone] | –
22 | > 7.30 | 6.00 to 7.00 | 6.30 to 7.00 | CC(=O)N1c2ccc(-c3cnn(C4CC4)c3)cc2N(c2nn(C)c3ccc(F)cc23)C[C@@H]1C [Example I-55, (S)-1-(6-(1-cyclopropyl-1H-pyrazol-4-yl)-4-(5-fluoro-1-methyl-1H-indazol-3-yl)-2-methyl-3,4-dihydroquinoxalin-1(2H)-yl)ethanone] | –
23 | 6.30 to 7.30 | 6.00 to 7.00 | < 6.30 | CC(=O)N1c2ccc(-c3cnn(C4COC4)c3)cc2N(C(=O)OC2COC2)C[C@@H]1C [Example I-59, (S)-oxetan-3-yl 4-acetyl-3-methyl-7-(1-(oxetan-3-yl)-1H-pyrazol-4-yl)-3,4-dihydroquinoxaline-1(2H)-carboxylate] | –
